{
  "source": "patent US7632946B2",
  "about": "“Naphthyridine-based antibacterial compositions” (Abbott Laboratories, priority 2004, dated 2009)",
  "test_system": "bacterial protein synthesis (S30 extract from quinolone-succeptable Streptococcus pneumoniae ATCC 46919)",
  "assay": "Cell-free translation assay, firefly luciferase reporter, S30 Streptococcus pneumoniae extract",
  "assay_type": "biochemical",
  "conditions": "luciferase mRNA, read-out: IC50, concentration causing 50% inhibition of bacterial protein synthesis",
  "description": "Bacterial protein synthesis inhibitory activity of representative compounds of this invention having formula (I) and the commercially-available antibacterials in TABLE 2 was determined by translation assays using the firefly luciferase reporter system described by Murray et al., (2001), “Staphylococcus aureus Cell Extract Transcription-Translation Assay: Firefly Luciferase Reporter System for Evaluating Protein Translation Inhibitors,” Antimicrob. Agents Chemother. 45(6): 1900-1904, but replacing the Staphylococcus aureus S30 extract described therein with S30 Streptococcus pneumoniae extract from quinolone-succeptable Streptococcus pneumoniae ATCC 46919, and replacing plasmid coding for the luciferase gene with mRNA (encoding produced by in vitro transcription from the plasmid pAS10rbs3) which encoded the luciferase gene with an upstream Streptococcus pneumoniae promoter and Shine-Dalgarno site.",
  "data": [
    {"compound": "CC(=O)NC[C@H]1CN(c2ccc(N3CCOCC3)c(F)c2)C(=O)O1", "note": "[Linezolid]", "values": [
      {"measurement": "IC50", "result": "~3000", "unit": "nM"}
    ]}
  ]
}
